Broadly, the IC50 is the concentration that gives 50% inhibition. A low value points to inhibition by little substance. For orientation: EC50 means the midpoint of the concentration-response curve.

The results in this text go back to patent US20260116868A1 (Arcus Biosciences, Inc., priority 2023, published 2026).

Each structure is given as a SMILES string. Like-named read-outs stand apart in the source and are kept apart here.

Test [1] has as its target T1, Cbl-b (Homo sapiens, UniProt Q13191).
T1 construct: biotin (biotinylated protein)
The test is described as follows: Cbl-b probe displacement HTRF binding assay. The following applies: 0.4 nM Cbl-b, 150 nM BODIPY probe. The method, boiled down: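 Binding IC50 from four-parameter fit of HTRF signal loss, normalised to DMSO (0%) and no-protein (100%) wells. Biotinylated Cbl-b 0.4 nM was preincubated 60 min with compound (20-point 1:2 dilution) before 15 min with 150 nM BODIPY probe; Tb-streptavidin detection.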

Test [2] concerns Jurkat cells. The test is described as follows: IL-2 secretion assay in Jurkat cells activated with CD3/CD28 T Cell Activator. Type of test: cell-based. The following applies: Homo sapiens, 24 h, read-out: IL-2 Secretion (EC50). The method, then:
Certain compounds were also evaluated in an IL-2 secretion assay. On the day of the assay, a 16 point, 1:2 master serial dilution of each compound was prepared in Opti-MEM to span a final concentration range of 10 μM to 300 pM. Assays were set up in CORNING® tissue culture-treated 384-well microplates containing 60 nL of each dilution. Jurkat cells grown in RPMI-1640 supplemented with 10% FBS, 1% Glutamax, and 1% Pen/Strep were collected, resuspended in Opti-MEM. 50,000 cells/well and added to the compound plates. After a short spin (1200 rpm for 1 min), the plates were incubated at 37° C. for 1 hour. The cells were activated by adding 15 μL of IMMUNOCULT™ Human CD3/CD28 T Cell Activator (STEMCELL Technologies) diluted in Opti-MEM. After 24 h of incubation at 37° C., aliquots of culture supernatants were transferred to OptiPlate-384 (PerkinElmer) microplates. The level of IL-2 secretion in the supernatants was then determined using the IL-2 (human) AlphaLISA Detection Kit (PerkinElmer) according to the manufacturer's recommendations. The AlphaLISA signal was measured using an EnVision plate reader (PerkinElmer). EC50 values were determined by fitting the data to a standard 4-parameter logistic equation. See Table 7 for data for select compounds (IL-2 Secretion (EC50)).

Where [3] appears, read: Jurkat cells, CD3/CD28 T Cell Activator, IL-2 AlphaLISA.

T1 sequence (Q13191 whole entry, species assumed): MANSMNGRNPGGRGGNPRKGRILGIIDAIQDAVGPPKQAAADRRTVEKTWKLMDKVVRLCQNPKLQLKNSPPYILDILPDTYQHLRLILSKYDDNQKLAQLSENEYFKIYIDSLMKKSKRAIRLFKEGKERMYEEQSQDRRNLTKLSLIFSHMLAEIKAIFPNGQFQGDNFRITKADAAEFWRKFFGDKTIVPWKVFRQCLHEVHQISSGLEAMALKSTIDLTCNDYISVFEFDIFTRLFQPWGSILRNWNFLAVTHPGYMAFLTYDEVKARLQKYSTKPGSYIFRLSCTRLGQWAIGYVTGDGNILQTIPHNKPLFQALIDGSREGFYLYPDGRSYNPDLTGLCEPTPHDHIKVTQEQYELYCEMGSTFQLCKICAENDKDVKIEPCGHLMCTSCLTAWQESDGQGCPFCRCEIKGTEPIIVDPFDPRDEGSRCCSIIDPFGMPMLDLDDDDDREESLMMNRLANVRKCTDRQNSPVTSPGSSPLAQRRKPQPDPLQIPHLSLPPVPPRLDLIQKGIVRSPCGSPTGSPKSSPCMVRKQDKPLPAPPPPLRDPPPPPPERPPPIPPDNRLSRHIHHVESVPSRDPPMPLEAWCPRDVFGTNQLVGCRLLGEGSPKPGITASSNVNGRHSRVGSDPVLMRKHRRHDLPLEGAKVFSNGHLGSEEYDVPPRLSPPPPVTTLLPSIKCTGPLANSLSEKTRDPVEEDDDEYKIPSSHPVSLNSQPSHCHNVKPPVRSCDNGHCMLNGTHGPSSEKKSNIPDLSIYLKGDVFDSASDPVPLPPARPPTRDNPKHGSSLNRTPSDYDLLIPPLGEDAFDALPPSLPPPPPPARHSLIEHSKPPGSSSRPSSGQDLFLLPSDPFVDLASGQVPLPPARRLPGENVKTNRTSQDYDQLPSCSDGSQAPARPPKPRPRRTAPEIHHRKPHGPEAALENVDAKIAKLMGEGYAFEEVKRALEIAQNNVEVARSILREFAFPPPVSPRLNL

Consider `C[C@H]1CCCN(Cc2cc(C(=O)Nc3cc(-c4ccc(C#N)cc4-c4nncn4C(F)F)cc(N)n3)c(=O)n(C3CC3)c2)C1` [Example 8, N-(6-amino-4-{4-cyano-2-[4-(difluoromethyl)-4H-1,2,4-triazol-3-yl]phenyl}-2-pyridyl)-5-{[(S)-3-methyl-1-piperidyl]methyl}-1-cyclopropyl-2-oxo-1,2-dihydronicotinamide], for which the concentration for half-maximal inhibition (IC50) in test [1] is below 100 nM. Also, the EC50 in test [2] (setting [3]) lay in the range of 100 to 1000 nM.

With `C[C@H]1CCCN(Cc2cc(C(=O)Nc3cc(-c4ccc(C#N)cc4-c4nccn4C)cc(Cl)n3)c(=O)n(C3CC3)c2)C1` [Example 35, N-{6-chloro-4-[4-cyano-2-(1-methyl-2-imidazolyl)phenyl]-2-pyridyl}-5-{[(S)-3-methyl-1-piperidyl]methyl}-1-cyclopropyl-2-oxo-1,2-dihydronicotinamide], the IC50 in test [1] was below 100 nM. Also, the EC50 in test [2] (setting [3]) was 100 to 1000 nM.

Take `CC(C)CNCc1cc(C(=O)Nc2cc(-c3ccc(Cl)cc3C(=O)N3CC(F)(F)C3)cc(C3CC3)n2)c(=O)n(C)c1` [Example 106, N-[4-[4-chloro-2-(3,3-difluoroazetidine-1-carbonyl)phenyl]-6-cyclopropylpyridin-2-yl]-1-methyl-5-[(2-methylpropylamino)methyl]-2-oxopyridine-3-carboxamide]: the IC50 in test [1] was below 100 nM. Also, in test [2] (setting [3]), the EC50 was below 100 nM.

Consider `COC(F)(F)CNCc1cc(C(=O)Nc2cc(-c3ccc(F)cc3-c3nncn3C)cc(C3CC3)n2)c(=O)n(C2CC2)c1` [Example 19, N-{6-cyclopropyl-4-[4-fluoro-2-(4-methyl-4H-1,2,4-triazol-3-yl)phenyl]-2-pyridyl}-1-cyclopropyl-5-[(2,2-difluoro-2-methoxyethylamino)methyl]-2-oxo-1,2-dihydronicotinamide], for which, in test [1], the IC50 is below 100 nM. The EC50 in test [2] (setting [3]) lay in the range of 100 to 1000 nM.

Compound `COCCNCc1cc(C(=O)Nc2cc(-c3ccc(C#N)cc3-c3nncn3C(F)F)cc(C3CC3)n2)c(=O)n(C2CC2)c1` [Example 14, N-(4-{4-cyano-2-[4-(difluoromethyl)-4H-1,2,4-triazol-3-yl]phenyl}-6-cyclopropyl-2-pyridyl)-1-cyclopropyl-5-[(2-methoxyethylamino)methyl]-2-oxo-1,2-dihydronicotinamide] registered an IC50 in test [1] below 100 nM. Besides, the EC50 in test [2] (setting [3]) is below 100 nM.

Turning to `C[C@H]1CCCN(Cc2cc(C(=O)Nc3cc(-c4ccc(C#N)cc4-c4nncn4C)cc(C4CC4)n3)c(=O)n(C3CC3)c2)C1` [Example 1, N-{4-[4-cyano-2-(4-methyl-4H-1,2,4-triazol-3-yl)phenyl]-6-cyclopropyl-2-pyridyl}-5-{[(S)-3-methyl-1-piperidyl]methyl}-1-cyclopropyl-2-oxo-1,2-dihydronicotinamide], the IC50 in test [1] is below 100 nM. The EC50 in test [2] (Jurkat) was below 100 nM.

`COCCNCc1cc(C(=O)Nc2cc(-c3ccc(C#N)cc3-c3ncoc3C)cc(C3CC3)n2)c(=O)n(C2CC2)c1` (single isomer, unassigned) [Example 50, N-{4-[4-cyano-2-(5-methyl-1,3-oxazol-4-yl)phenyl]-6-cyclopropyl-2-pyridyl}-1-cyclopropyl-5-[(2-methoxyethylamino)methyl]-2-oxo-1,2-dihydronicotinamide] came in with an IC50 in test [1] below 100 nM. Further, the EC50 in test [2] (setting [3]) was below 100 nM.

Regarding `COCCNCc1cc(C(=O)Nc2cc(-c3ccc(F)cc3-n3nccc3C)cc(C3CC3)n2)c(=O)n(C2CC2)c1` [Example 70, 1-Cyclopropyl-N-[6-cyclopropyl-4-[4-fluoro-2-(5-methylpyrazol-1-yl)phenyl]pyridin-2-yl]-5-[(2-methoxyethylamino)methyl]-2-oxopyridine-3-carboxamide], the IC50 in test [1] is below 100 nM. In addition, the EC50 in test [2] (setting [3]) is 100 to 1000 nM.

Regarding `C[C@H]1CCCN(Cc2cc(C(=O)Nc3cc(-c4ccc(F)cc4C(=O)N4CC(F)C4)cc(C4CC4)n3)c(=O)n(C3CC3)c2)C1` [Example 65, N-(6-cyclopropyl-4-{4-fluoro-2-[(3-fluoro-1-azetidinyl)carbonyl]phenyl}-2-pyridyl)-5-{[(S)-3-methyl-1-piperidyl]methyl}-1-cyclopropyl-2-oxo-1,2-dihydronicotinamide], the concentration for half-maximal inhibition (IC50) in test [1] is below 100 nM. The EC50 in test [2] (setting [3]) lay in the range of 100 to 1000 nM.

`CN(C)Cc1c[nH]c(=O)c(C(=O)Nc2cc(-c3ccc(F)cc3-c3nncn3C)cc(C3CC3)n2)c1` [Example 32, N-{6-Cyclopropyl-4-[4-fluoro-2-(4-methyl-4H-1,2,4-triazol-3-yl)phenyl]-2-pyridyl}-5-[(dimethylamino)methyl]-2-oxo-1,2-dihydronicotinamide] returned an IC50 in test [1] below 100 nM. Moreover, the EC50 in test [2] (setting [3]) was 1000 to 5000 nM.

For the compound `CO[C@@H](C)CNCc1cc(C(=O)Nc2cc(-c3ccc(C#N)cc3C(=O)N3CC(F)(F)C3)cc(C3CC3)n2)c(=O)n(C2CC2)c1` [Example 95, N-(4-{4-cyano-2-[(3,3-difluoro-1-azetidinyl)carbonyl]phenyl}-6-cyclopropyl-2-pyridyl)-5-{[(S)-2-methoxypropylamino]methyl}-1-cyclopropyl-2-oxo-1,2-dihydronicotinamide], in test [1], the IC50 is below 100 nM. In test [2] (setting [3]), the EC50 is below 100 nM.

`Cn1ccnc1-c1cc(C#N)ccc1-c1cc(NC(=O)c2cc(CO)cn(C3CC3)c2=O)nc(C2CC2)c1` (single isomer, unassigned) [Example 37, N-{4-[4-cyano-2-(1-methyl-2-imidazolyl)phenyl]-6-cyclopropyl-2-pyridyl}-1-cyclopropyl-5-(hydroxymethyl)-2-oxo-1,2-dihydronicotinamide] had an IC50 in test [1] of 100 to 1000 nM. In addition, the EC50 in test [2] (setting [3]) is above 5000 nM.

As to `CN1C[C@@H]2C[C@H]1CN2Cc1cc(C(=O)Nc2cc(-c3ccc(C#N)cc3-c3nccn3C)cc(C3CC3)n2)c(=O)n(C2CC2)c1` [Example 38, N-{4-[4-cyano-2-(1-methyl-2-imidazolyl)phenyl]-6-cyclopropyl-2-pyridyl}-5-({(1S,4S)-5-methyl-2,5-diazabicyclo[2.2.1]hept-2-yl}methyl)-1-cyclopropyl-2-oxo-1,2-dihydronicotinamide], the IC50 in test [1] lay in the range of 100 to 1000 nM. Besides, the 50% effective concentration (EC50) in test [2] (setting [3]) was in the range of 1000 to 5000 nM.

`CO[C@H](C)CNCc1cc(C(=O)Nc2cc(-c3ccc(F)cc3-c3nncn3C)cc(C3CC3)n2)c(=O)n(C2CC2)c1` [Example 20, N-{6-cyclopropyl-4-[4-fluoro-2-(4-methyl-4H-1,2,4-triazol-3-yl)phenyl]-2-pyridyl}-5-{[(R)-2-methoxypropylamino]methyl}-1-cyclopropyl-2-oxo-1,2-dihydronicotinamide] displayed an IC50 in test [1] below 100 nM. In addition, the EC50 in test [2] (setting [3]) is below 100 nM.

For the compound `COC1CN(Cc2cc(C(=O)Nc3cc(-c4ccc(F)cc4-c4nncn4C)cc(C4CC4)n3)c(=O)n(C3CC3)c2)C1` [Example 26, N-{6-cyclopropyl-4-[4-fluoro-2-(4-methyl-4H-1,2,4-triazol-3-yl)phenyl]-2-pyridyl}-1-cyclopropyl-5-[(3-methoxy-1-azetidinyl)methyl]-2-oxo-1,2-dihydronicotinamide], the IC50 in test [1] is below 100 nM. The EC50 in test [2] (setting [3]) lay within 100 to 1000 nM.

For the compound `CN(C)Cc1cc(C(=O)Nc2cc(-c3ccc(F)cc3-c3nncn3C)cc(C3CC3)n2)c(=O)n(C2CC2)c1` [Example 33, N-{6-Cyclopropyl-4-[4-fluoro-2-(4-methyl-4H-1,2,4-triazol-3-yl)phenyl]-2-pyridyl}-1-cyclopropyl-5-[(dimethylamino)methyl]-2-oxo-1,2-dihydronicotinamide], in test [1], the 50% inhibitory concentration (IC50) is below 100 nM. The EC50 in test [2] (setting [3]) is 100 to 1000 nM.

`COCCNCc1cc(C(=O)Nc2cc(-c3ccc(C(=O)OC)cc3-c3ncoc3C)cc(C3CC3)n2)c(=O)n(C2CC2)c1` (single isomer, unassigned) [Example 51, methyl 4-(6-cyclopropyl-2-{1-cyclopropyl-5-[(2-methoxyethylamino)methyl]-2-oxo-1,2-dihydronicotinoylamino}-4-pyridyl)-3-(5-methyl-1,3-oxazol-4-yl)benzoate] registered an IC50 in test [1] of 100 to 1000 nM. In test [2] (setting [3]), the EC50 was in the range of 1000 to 5000 nM.

For the compound `Cc1ocnc1-c1cc(C#N)ccc1-c1cc(NC(=O)c2cc(CNC3(C)CCC3)cn(C3CC3)c2=O)nc(C2CC2)c1` [Example 53, N-{4-[4-cyano-2-(5-methyl-1,3-oxazol-4-yl)phenyl]-6-cyclopropyl-2-pyridyl}-1-cyclopropyl-5-[(1-methylcyclobutylamino)methyl]-2-oxo-1,2-dihydronicotinamide], in test [1], the IC50 is below 100 nM. The 50% effective concentration (EC50) in test [2] (setting [3]) is 100 to 1000 nM.

Turning to `COCCNCc1cc(C(=O)Nc2cc(-c3ccc(C#N)cc3-c3nc(C#N)cn3C)cc(C3CC3)n2)c(=O)n(C2CC2)c1` [Example 48, N-{4-[4-cyano-2-(4-cyano-1-methyl-2-imidazolyl)phenyl]-6-cyclopropyl-2-pyridyl}-1-cyclopropyl-5-[(2-methoxyethylamino)methyl]-2-oxo-1,2-dihydronicotinamide], the IC50 in test [1] was below 100 nM. In test [2] (setting [3]), the EC50 is below 100 nM.
